From patent US20040241840A1, “Compositions for therapy” (priority 2001, published 2004)
Structures can show the parent of a compound that is named as a salt. Marks after values point to notes of the source that are not given here.

What was measured:
[1] = target: T1, low affinity glucocorticoid binding site (LAGS) (Rattus norvegicus, UniProt P70580); assay: competition analysis with 5×10^−8M [3H]dexamethasone for binding to the LAGS; conditions: for IC50: read-out: IC50% (concentration of unlabelled competitor reducing specific binding of radiolabelled dexamethasone to the LAGS to 50% of control); for competition with dexamethasone for binding to the LAGS (in words): 4° for 8 hours, FIG. 2
T1 sequence (P70580 2-195): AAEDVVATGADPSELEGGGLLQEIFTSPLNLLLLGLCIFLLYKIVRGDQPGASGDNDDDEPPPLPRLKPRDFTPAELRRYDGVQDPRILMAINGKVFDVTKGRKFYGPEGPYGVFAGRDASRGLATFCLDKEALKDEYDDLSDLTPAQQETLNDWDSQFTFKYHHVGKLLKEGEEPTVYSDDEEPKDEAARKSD
Experimental: Washed liver microsomes (100,000 g pellet) were prepared after canulating the portal vein of a rat and perfusing blood from the liver using ice-cooled hanks buffer.
Data were analysed using standard methods.
Potential competitors were added from ethanol stocks such that the final ethanol concentration in the assay was less than 1% (v/v). Specific binding was determined using conventional methods as described above.
Free ligand was removed using dextran-charcoal. […] Competitors were added from ethanol stocks such that final ethanol concentration in the assay was less than 1% (v/v).

rat and human HSCs = assay: proliferation of rat and human HSCs, results in words; assay type: cell-based
Experimental: (§1) Rat hepatic stellate cells (HSCs) were isolated by pronase/collagenase perfusion and purified by isopycnic density centrifugation in Opti-prep™ (Nycomed) and elutriation (Wright et al (2001) Gastroenterology 121(3): 685-698). Human HSCs were isolated from discarded resected liver via a similar protocol. The use of human liver tissue for scientific investigation was approved by the UK South and West Local Research Ethics Commitee and was subject to patient consent.
(§2) HSCs were cultured in Dulbecco's modified Eagle Medium (DMEM) containing 4.5 g/l of glucose, supplemented with 16% (v/v) fetal calf serum, 80 u/ml penicillin, 80 μg/ml streptomycin and 32 μg/ml gentamycin. Cells were seeded onto plastic culture dishes and incubated at 37° C. in an humidified incubator gassed with 5% CO2 in air. The culture medium was renewed after the first day and thereafter every 3-4 days.
(§3) However, when rat and human HSCs were treated with ligands of LAGS, the proliferation and activation of the HSCs was inhibited. In addition, T6 cells (rat hepatic stellate cell line) were seeded at low density in 6 well plates in DMEM supplemented with 4% (v/v) FCS. The T6 cells were re-treated at 24 hours and counted at 48 hours. Human hepatic stellate cells were treated at days 2, 5, 7, 9 and 12 of culture and counted on day 15 of culture. Control cells were treated identically with 0.1% (v/v) ethanol used to prepare steroid stocks.

[2] = tested on: rats administered CCl4 (liver fibrosis); assay: CCl4 liver fibrosis rat in vivo model; conditions: PCN once weekly during CCl4 twice weekly for 6 weeks
Experimental: Rats were administered CCl4 twice weekly for 6 weeks to cause liver fibrosis and administered PCN once weekly during CCl4 treatment.

[3] = tested on: T6 cells (rat hepatic stellate cell line); assay: proliferation of T6 cells (cell count); assay type: cell-based; conditions: re-treated at 24 hours, counted at 48 hours
Experimental: as §3

glucocorticoid receptor = target: T2, glucocorticoid receptor (Rattus norvegicus, UniProt P06536); assay: specific binding of 10 nM [3H]dexamethasone in rat liver cytosol
T2 construct: from tissue; host or cells: rat liver cytosol
T2 sequence (P06536 1-795): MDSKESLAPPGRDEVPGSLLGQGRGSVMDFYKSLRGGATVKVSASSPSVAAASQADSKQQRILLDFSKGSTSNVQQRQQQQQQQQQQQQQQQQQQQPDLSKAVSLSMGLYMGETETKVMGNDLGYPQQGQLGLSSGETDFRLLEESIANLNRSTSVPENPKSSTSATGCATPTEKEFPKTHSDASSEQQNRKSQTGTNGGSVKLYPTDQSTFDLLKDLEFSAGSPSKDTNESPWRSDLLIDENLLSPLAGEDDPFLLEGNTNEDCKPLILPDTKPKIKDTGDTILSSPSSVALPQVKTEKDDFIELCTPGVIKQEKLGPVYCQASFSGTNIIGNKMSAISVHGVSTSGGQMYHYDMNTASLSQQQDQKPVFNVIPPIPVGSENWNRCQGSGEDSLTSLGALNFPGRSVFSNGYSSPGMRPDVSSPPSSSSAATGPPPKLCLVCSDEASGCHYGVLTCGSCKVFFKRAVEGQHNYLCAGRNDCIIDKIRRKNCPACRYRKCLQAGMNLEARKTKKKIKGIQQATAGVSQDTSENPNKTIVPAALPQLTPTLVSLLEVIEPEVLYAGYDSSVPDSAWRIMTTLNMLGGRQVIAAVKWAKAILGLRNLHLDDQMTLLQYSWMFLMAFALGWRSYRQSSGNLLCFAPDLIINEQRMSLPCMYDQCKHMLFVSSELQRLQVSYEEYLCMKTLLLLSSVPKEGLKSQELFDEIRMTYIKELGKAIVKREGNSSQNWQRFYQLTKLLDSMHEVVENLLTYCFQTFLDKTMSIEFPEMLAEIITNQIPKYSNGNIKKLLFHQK

[4] = target: T1, low affinity glucocorticoid binding site (LAGS); assay: specific binding of 10 nM [3H]dexamethasone in rat liver microsomes; conditions: read-out: % specific binding compared to dexamethasone alone, microsomes
[5] = tested on: α-smooth muscle actin expression in human HSCs; assay: α-smooth muscle actin expression in cultured human hepatic stellate cells (Western blotting); assay type: cell-based; conditions: human HSCs cultured for 15 days, FIG. 3
Experimental: The effect of LAGS ligands on activation to the pro-fibrogenic phenotype was investigated by measuring the effect of LAGS ligands on expression of α-smooth muscle actin in cultured human hepatic stellate cells. […] Whole cell extracts (10 μg protein/lane) were probed for alpha-smooth muscle actin and GFAP (glial fibrillary acidic protein—loading control) protein expression by Western blotting. Scanned blots were quantitated using Phoretix software (Nonlinear Dynamics, Newcastle, UK).

human HSCs = assay: proliferation of human hepatic stellate cells (cell count); assay type: cell-based; conditions: treated at days 2, 5, 7, 9 and 12, counted on day 15
Experimental: as §1, §2
as §3, with “Control cells were treated identically with 0.1% (v/v) ethanol used to prepare steroid stocks.” left out

[6] = target: T1, low affinity glucocorticoid binding site (LAGS); conditions: 1 μM; Wright & Paine (1995); cited from earlier work

## CC(=NOCC(=O)O)[C@H]1CC[C@H]2[C@@H]3CCC4=C[C@@H](O)CC[C@]4(C)[C@H]3CC[C@]12C [4 pregnene-3β-ol-20-one carboxymethyloxime]
[1]
  IC50: > 100 µM

## CC(=O)[C@H]1CC[C@H]2[C@@H]3C[C@@H](O)C4=CC(=O)CC[C@]4(C)[C@H]3CC[C@]12C [6α-hydroxyprogesterone]
[1]
  IC50: 5 µM

## CC(=O)O[C@@H]1C[C@H]2[C@@H]3CC[C@H](C(C)=O)[C@@]3(C)CC[C@@H]2[C@@]2(C)CCC(=O)C=C12 [6β-progesterone acetate]
[1]
  IC50: 0.5 µM

## CC(=O)[C@H]1CC[C@H]2[C@@H]3CCC4=CC(=O)CC[C@]4(C)[C@H]3[C@H](O)C[C@]12C [11α-hydroxyprogesterone]
[1]
  IC50: 0.1 µM

## CC(=O)O[C@@H]1C[C@]2(C)[C@@H](C(C)=O)CC[C@H]2[C@@H]2CCC3=CC(=O)CC[C@]3(C)[C@H]21 [11α-progesterone acetate]
[1]
  IC50: 0.1 µM

## CC(=O)[C@H]1CC[C@H]2[C@@H]3CCC4=CC(=O)CC[C@]4(C)[C@H]3[C@@H](OS(=O)(=O)c3ccc(C)cc3)C[C@]12C [11β-progesterone tosylate]
[1]
  IC50: 10 µM

## CC1CC2C3CCC4=CC(=O)C=CC4(C)C3(F)C(O)CC2(C)C1(O)C(=O)O (stereo not drawn) [17β-carboxylic acid derivative, 9α-fluoro 16α-methyl-11β,17α-dihydroxy-1,4-pregn-3-one 17-carboxylic acid]
[1]
  IC50: 100 µM

## CC(=O)[C@H]1[C@H](C#N)C[C@H]2[C@@H]3CC=C4C[C@@H](O)CC[C@]4(C)[C@H]3CC[C@@]21C [PCN, pregnenolone 16-alpha carbonitrile]
[1]
  competition with dexamethasone for binding to the LAGS (in words): compete with dexamethasone for binding to the LAGS
Rat and human HSCs
  effect on cell proliferation (in words): inhibited in their ability to proliferate
[2]
  Sirius red staining (collagens) in liver: significantly reduced
  blinded histological scoring of H&E stained liver sections, CCl4 versus CCl4/PCN treated rats: no significant difference
  liver serum (AST) enzyme levels, CCl4 versus CCl4/PCN treated rats: no significant difference
  number of cells and extent of α-smooth muscle actin staining in livers: significantly reduced
[3]; 10 μM
  % proliferation versus control (100%), T6 cells: 55 +/− 17%

## CC#C[C@]1(O)CC[C@H]2[C@@H]3CCC4=CC(=O)CCC4=C3[C@@H](c3ccc(N(C)C)cc3)C[C@@]21C [RU486]
Glucocorticoid receptor; 10 μM RU486, mean and SD of 3 samples
  % specific binding compared to dexamethasone alone, cytosol: 0* %
[4]
  activity at 10 µM: 123%

## CO[C@H]1C[C@H](O[C@H]2[C@H](C)[C@@H](O[C@@H]3O[C@H](C)C[C@H](N(C)C)[C@H]3OC(C)=O)[C@@H](C)C[C@@]3(CO3)C(=O)[C@H](C)[C@@H](OC(C)=O)[C@@H](C)[C@@H](C)OC(=O)[C@@H]2C)O[C@@H](C)[C@@H]1OC(C)=O [TAO, troleandomycin]
[3]; 100 μM
  % proliferation versus control (100%), T6 cells: 106 +/− 2.8%

## Clc1ccccc1C(c1ccccc1)(c1ccccc1)n1ccnc1 [clotrimazole]
[1]
  competition with dexamethasone for binding to the LAGS (in words): compete with dexamethasone for binding to the LAGS
Rat and human HSCs
  effect on cell proliferation (in words): inhibited in their ability to proliferate
[5]; 1 μM clotrimazole
  expression of α-smooth muscle actin (in words): inhibited expression of α-smooth muscle actin
Human HSCs; 5 μM
  % proliferation versus control (100%), human HSCs: 25 +/− 13%
[3]; 5 μM
  % proliferation versus control (100%), T6 cells: 18 +/− 4.7%

## C[C@@H]1C[C@H]2[C@@H]3CCC4=CC(=O)C=C[C@]4(C)[C@@]3(F)[C@@H](O)C[C@]2(C)[C@@]1(O)C(=O)COS(C)(=O)=O [dexamethasone mesylate]
[1]
  IC50: 10 µM

## C[C@@H]1C[C@H]2[C@@H]3CCC4=CC(=O)C=C[C@]4(C)[C@@]3(F)[C@@H](O)C[C@]2(C)[C@@]1(O)C(=O)CO [dexamethasone]
Rat and human HSCs
  effect on cell proliferation (in words): no effect

## CC(C)(C(=O)c1cccnc1)c1cccnc1 [metyrapone]
Glucocorticoid receptor; metyrapone, concentration not given, mean and SD of 3 samples
  % specific binding compared to dexamethasone alone, cytosol: 105 +/− 4.0%
[1]
  competition with dexamethasone for binding to the LAGS (in words): compete with dexamethasone for binding to the LAGS
Rat and human HSCs
  effect on cell proliferation (in words): inhibited in their ability to proliferate
[5]; 200 μM metyrapone
  expression of α-smooth muscle actin (in words): inhibited expression of α-smooth muscle actin
Human HSCs; 500 μM
  % proliferation versus control (100%), human HSCs: 76 +/− 18%
[3]; 500 μM
  % proliferation versus control (100%), T6 cells: 52 +/− 5.7%

## CCC1(c2ccccc2)C(=O)NC(=O)NC1=O [phenobarbitone]
[1]
  competition with dexamethasone for binding to the LAGS (in words): compete with dexamethasone for binding to the LAGS

## CC(=O)C1CCC2C3CCC4=CC(=O)CCC4(C)C3CCC12C (stereo not shown) [progesterone]
[1]
  competition with dexamethasone for binding to the LAGS (in words): compete with dexamethasone for binding to the LAGS
Rat and human HSCs
  effect on cell proliferation (in words): no effect

## betamethasonenone
[1]
  IC50: 5 µM

## biotinylated dexamethasone
[1]
  IC50: > 100 µM

## oestradiol
[5]; 1 μM oestradiol
  expression of α-smooth muscle actin (in words): inhibited expression of α-smooth muscle actin
[6]
  binding to the LAGS (in words): a ligand for the LAGS at this concentration
